Measurements taken from ChEMBL document CHEMBL5291721, “A preclinical secondary pharmacology resource illuminates target-adverse drug reaction associations of marketed drugs” (Nat Commun, 2023).

Legend:
[1] = biological target: 3',5'-cyclic-AMP phosphodiesterase 4A (Homo sapiens, UniProt P27815); type: functional
[2] = biological target: Sodium-dependent noradrenaline transporter (Homo sapiens, UniProt P23975)
[3] = biological target: T1, Thromboxane A2 receptor (Homo sapiens, UniProt P21731); type: functional, cell-based
T1 sequence (P21731 whole entry): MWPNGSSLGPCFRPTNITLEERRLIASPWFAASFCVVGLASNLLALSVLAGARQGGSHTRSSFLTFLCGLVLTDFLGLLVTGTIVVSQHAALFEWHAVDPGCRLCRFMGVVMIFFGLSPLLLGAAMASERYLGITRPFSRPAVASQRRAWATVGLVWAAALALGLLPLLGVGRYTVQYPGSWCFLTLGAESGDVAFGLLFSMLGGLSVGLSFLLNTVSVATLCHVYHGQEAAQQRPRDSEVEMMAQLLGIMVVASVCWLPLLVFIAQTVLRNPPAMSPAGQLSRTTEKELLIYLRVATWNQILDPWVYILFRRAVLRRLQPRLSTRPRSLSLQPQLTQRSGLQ

[4] = biological target: T2, Estrogen receptor (Homo sapiens, UniProt P03372)
T2 sequence (P03372 whole entry): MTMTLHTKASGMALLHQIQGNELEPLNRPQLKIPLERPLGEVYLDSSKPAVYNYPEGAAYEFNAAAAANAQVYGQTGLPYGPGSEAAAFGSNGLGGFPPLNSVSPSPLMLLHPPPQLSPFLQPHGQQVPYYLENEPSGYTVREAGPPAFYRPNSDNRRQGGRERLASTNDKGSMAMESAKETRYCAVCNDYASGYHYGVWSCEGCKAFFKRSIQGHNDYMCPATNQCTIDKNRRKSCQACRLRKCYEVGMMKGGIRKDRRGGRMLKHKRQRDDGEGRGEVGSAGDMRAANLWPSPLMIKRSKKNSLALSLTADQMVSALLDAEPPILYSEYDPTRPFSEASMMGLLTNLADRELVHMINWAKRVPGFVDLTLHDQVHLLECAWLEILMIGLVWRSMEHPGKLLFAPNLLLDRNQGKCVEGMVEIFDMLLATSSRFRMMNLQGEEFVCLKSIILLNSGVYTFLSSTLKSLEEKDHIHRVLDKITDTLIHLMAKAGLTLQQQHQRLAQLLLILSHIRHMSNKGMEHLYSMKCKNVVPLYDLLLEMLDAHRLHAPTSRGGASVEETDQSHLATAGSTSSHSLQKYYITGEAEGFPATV

[5] = biological target: T3, Progesterone receptor (Homo sapiens, UniProt P06401)
T3 sequence (P06401 whole entry): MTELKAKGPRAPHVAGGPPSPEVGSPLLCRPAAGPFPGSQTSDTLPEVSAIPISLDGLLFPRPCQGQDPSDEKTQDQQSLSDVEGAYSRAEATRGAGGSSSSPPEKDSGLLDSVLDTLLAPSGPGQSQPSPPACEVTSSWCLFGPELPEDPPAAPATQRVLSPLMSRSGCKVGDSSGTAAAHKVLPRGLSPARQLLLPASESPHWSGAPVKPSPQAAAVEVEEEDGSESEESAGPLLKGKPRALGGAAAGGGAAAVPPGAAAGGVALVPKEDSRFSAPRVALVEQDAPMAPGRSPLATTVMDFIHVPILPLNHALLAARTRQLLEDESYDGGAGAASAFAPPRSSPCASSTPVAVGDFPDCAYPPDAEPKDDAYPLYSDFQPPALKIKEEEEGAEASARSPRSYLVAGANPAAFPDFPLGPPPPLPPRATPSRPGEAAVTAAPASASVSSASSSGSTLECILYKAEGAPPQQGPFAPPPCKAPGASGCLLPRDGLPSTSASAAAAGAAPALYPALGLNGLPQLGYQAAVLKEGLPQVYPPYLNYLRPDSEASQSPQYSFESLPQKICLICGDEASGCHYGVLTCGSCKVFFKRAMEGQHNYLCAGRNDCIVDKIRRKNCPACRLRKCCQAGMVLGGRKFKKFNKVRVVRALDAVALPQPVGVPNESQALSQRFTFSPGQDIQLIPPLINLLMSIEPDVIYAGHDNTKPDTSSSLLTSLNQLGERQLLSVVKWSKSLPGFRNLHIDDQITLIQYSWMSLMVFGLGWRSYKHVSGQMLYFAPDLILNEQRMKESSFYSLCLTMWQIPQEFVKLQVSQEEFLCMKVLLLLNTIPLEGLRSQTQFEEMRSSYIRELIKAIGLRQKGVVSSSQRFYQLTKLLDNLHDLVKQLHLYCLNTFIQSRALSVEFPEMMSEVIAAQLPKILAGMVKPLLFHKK

[6] = biological target: Prostaglandin G/H synthase 1 (Homo sapiens, UniProt P23219); type: functional
[7] = biological target: T4, Muscarinic acetylcholine receptor M2 (Homo sapiens, UniProt P08172)
T4 sequence (P08172 whole entry): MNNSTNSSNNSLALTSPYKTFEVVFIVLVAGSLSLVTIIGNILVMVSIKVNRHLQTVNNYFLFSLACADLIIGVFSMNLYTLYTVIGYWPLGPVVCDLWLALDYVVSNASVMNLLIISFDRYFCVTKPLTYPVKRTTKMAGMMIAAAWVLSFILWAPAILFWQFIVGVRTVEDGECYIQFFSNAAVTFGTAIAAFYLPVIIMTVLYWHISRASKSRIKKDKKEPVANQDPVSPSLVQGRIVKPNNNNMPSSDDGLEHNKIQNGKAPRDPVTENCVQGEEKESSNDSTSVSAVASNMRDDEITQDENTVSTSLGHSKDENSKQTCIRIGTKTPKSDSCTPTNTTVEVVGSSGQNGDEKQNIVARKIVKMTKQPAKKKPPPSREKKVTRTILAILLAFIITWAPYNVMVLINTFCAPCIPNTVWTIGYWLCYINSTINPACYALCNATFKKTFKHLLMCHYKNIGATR

[8] = biological target: Vascular endothelial growth factor receptor 2 (Homo sapiens, UniProt P35968); type: functional
Further: assay procedure not described here.

Prostaglandin G/H synthase 1, sequence (P23219 whole entry): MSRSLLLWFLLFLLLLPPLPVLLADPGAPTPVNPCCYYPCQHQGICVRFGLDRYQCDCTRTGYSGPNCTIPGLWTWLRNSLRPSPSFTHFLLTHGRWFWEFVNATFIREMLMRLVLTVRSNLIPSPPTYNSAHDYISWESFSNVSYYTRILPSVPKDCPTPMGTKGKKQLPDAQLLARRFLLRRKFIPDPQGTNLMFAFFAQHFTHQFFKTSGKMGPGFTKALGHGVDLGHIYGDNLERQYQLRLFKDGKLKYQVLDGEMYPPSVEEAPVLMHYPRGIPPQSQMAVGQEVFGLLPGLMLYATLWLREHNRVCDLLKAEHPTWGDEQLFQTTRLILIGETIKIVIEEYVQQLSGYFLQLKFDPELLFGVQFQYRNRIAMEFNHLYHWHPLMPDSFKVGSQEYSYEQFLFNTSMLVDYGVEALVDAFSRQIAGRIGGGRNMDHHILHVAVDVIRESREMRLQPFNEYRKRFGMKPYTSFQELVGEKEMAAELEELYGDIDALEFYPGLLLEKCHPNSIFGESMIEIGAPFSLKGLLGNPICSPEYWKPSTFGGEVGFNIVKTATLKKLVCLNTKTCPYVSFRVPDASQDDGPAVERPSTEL
3',5'-cyclic-AMP phosphodiesterase 4A, sequence (P27815 whole entry): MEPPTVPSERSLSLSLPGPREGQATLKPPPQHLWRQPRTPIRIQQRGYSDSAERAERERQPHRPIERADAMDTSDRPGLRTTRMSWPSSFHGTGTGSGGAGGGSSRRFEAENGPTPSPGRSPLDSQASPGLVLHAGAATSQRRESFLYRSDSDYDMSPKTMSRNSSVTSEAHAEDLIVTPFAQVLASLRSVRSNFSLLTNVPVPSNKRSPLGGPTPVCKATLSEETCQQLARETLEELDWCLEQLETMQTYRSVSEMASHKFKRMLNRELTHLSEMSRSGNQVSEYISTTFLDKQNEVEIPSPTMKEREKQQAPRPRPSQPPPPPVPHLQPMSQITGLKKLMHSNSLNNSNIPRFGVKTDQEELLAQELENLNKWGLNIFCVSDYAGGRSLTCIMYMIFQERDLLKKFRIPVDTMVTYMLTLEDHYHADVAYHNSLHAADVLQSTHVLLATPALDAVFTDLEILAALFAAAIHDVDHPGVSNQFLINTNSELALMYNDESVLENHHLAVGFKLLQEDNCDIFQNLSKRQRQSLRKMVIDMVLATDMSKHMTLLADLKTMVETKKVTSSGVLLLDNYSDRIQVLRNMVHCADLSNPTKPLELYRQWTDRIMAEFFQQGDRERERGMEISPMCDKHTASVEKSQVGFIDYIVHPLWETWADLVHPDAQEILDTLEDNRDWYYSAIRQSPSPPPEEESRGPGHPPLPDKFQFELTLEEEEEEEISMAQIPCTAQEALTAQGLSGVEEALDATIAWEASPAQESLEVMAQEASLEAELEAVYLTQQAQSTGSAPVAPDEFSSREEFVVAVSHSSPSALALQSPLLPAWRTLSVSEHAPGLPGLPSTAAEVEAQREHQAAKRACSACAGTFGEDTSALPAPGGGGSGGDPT
Sodium-dependent noradrenaline transporter, sequence (P23975 whole entry): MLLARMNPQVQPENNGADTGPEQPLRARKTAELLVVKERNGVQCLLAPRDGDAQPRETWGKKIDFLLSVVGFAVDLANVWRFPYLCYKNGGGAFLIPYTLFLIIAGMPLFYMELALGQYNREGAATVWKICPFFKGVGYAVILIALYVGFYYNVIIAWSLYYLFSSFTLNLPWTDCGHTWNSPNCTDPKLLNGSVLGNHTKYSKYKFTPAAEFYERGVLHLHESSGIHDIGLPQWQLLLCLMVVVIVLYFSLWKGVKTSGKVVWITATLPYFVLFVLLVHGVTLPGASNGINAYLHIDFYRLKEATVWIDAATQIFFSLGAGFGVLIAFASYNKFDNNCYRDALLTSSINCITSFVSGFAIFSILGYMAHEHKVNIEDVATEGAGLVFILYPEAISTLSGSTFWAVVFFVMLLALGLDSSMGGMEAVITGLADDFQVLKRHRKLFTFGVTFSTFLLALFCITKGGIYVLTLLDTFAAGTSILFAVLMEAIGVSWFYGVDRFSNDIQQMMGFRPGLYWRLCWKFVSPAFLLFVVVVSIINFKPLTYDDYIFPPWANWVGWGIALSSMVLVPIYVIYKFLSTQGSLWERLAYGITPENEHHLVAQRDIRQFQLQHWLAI
Vascular endothelial growth factor receptor 2, sequence (P35968 whole entry): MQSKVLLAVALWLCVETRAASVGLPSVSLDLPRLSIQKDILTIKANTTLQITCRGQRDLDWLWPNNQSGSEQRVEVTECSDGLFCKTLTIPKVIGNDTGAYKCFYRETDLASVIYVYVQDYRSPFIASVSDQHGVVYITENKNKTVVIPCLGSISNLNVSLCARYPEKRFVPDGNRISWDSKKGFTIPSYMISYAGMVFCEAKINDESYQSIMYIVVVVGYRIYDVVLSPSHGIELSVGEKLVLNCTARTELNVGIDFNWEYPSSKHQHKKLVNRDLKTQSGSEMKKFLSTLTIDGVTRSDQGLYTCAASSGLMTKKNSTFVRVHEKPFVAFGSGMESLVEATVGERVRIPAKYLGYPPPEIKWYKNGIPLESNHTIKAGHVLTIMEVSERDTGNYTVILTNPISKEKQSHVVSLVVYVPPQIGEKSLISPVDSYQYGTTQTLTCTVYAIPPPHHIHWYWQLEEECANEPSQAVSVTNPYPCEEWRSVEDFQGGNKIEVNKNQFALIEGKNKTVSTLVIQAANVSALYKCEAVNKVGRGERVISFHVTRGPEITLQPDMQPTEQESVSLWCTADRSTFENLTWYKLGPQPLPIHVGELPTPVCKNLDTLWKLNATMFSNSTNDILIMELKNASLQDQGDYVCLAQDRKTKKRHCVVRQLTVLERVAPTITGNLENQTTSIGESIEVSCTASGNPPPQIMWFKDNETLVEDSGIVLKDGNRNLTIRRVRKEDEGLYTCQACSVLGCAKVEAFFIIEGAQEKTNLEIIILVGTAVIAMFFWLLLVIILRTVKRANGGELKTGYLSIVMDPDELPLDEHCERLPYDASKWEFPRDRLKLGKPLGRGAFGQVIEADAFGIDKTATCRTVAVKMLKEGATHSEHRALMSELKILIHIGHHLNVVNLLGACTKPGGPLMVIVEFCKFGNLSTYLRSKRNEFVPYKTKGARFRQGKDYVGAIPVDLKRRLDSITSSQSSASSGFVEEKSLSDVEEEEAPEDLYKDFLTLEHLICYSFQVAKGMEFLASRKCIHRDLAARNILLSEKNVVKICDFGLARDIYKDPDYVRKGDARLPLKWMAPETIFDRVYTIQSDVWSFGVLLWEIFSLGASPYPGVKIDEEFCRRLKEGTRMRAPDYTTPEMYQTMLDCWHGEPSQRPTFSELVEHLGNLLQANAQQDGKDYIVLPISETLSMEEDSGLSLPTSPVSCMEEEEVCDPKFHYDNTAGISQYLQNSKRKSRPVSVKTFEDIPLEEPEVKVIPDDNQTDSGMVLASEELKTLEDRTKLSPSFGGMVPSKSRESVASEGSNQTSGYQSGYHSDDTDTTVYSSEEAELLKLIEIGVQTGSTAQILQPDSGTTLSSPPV

SMILES | AC50 [1] [µM] | AC50 [2] [µM] | AC50 [3] [µM] | AC50 [4] [µM] | AC50 [5] [µM] | AC50 [6] [µM] | AC50 [7] [µM] | AC50 [8] [µM]
C[C@@H](O)[C@H]1C(=O)N2C(C(=O)O)=C(S[C@@H]3CN[C@H](C(=O)Nc4cccc(C(=O)O)c4)C3)[C@H](C)[C@H]12 | 1.62 | > 30 | > 30 | 15.9 | > 30 | 19.9 | > 30 | 
N[C@@H](Cc1ccc(N(CCCl)CCCl)cc1)C(=O)O | > 30 | > 30 | > 30 |  | > 30 | 6.82 | 13.6 | > 30
CC(=O)OC1CN2CCC1CC2 (stereo unspecified) [ACECLIDINE] | > 30 | > 30 | > 30 | > 30 | > 30 | > 30 |  | 
CC1=C(/C=C/C(C)=C\C=C\C(C)=C\C(=O)O)C(C)(C)CCC1 [ALITRETINOIN] | > 30 | > 30 | > 30 |  | > 30 |  | > 30 | > 30
N=C(N)NC(=O)c1nc(Cl)c(N)nc1N [AMILORIDE] | > 30 | > 30 | > 30 | > 30 | > 30 | > 30 | > 30 | 
CC(=O)Nc1ccc(/C=N/NC(N)=S)cc1 [AMITHIOZONE] | > 30 | > 30 | > 30 |  | > 30 | > 30 | > 30 | 
Cn1c(CCCC(=O)O)nc2cc(N(CCCl)CCCl)ccc21 [BENDAMUSTINE] | > 30 | > 30 | > 30 | > 30 | > 30 | 5.8 | > 30 | 
O=C(OOC(=O)c1ccccc1)c1ccccc1 [BENZOYL PEROXIDE] | > 30 | > 30 | > 30 | > 30 | > 30 | > 30 | > 30 | 
C[C@H]1C[C@H]2[C@@H]3CCC4=CC(=O)C=C[C@]4(C)[C@@]3(F)[C@@H](O)C[C@]2(C)[C@@]1(O)C(=O)CO [BETAMETHASONE] | > 30 | > 30 | > 30 |  | 11.4 | > 30 | > 30 | > 30
CC(C)(C)NCC(O)COc1ccccc1C#N (stereo unspecified) [BUNITROLOL] | > 30 | > 30 | > 30 | > 30 | > 30 | > 30 | > 30 | 
O=NN(CCCl)C(=O)NCCCl [CARMUSTINE] |  | > 30 |  |  |  |  | > 30 | 
CC1(C)C[C@@H]1C(=O)N/C(=C\CCCCSC[C@H](N)C(=O)O)C(=O)O [CILASTATIN] | > 30 | > 30 | > 30 |  | > 30 | > 30 | > 30 | 
COc1c(OCCCN2CCOCC2)ccc2c1N=C(NC(=O)c1cnc(N)nc1)N1CCN=C21 [COPANLISIB] | > 30 | > 30 | > 30 | > 30 | > 30 | > 30 | 5.64 | 
COc1cccc2c1C(=O)c1c(O)c3c(c(O)c1C2=O)C[C@@](O)(C(=O)CO)C[C@@H]3O[C@H]1C[C@H](N)[C@H](O)[C@H](C)O1 [DOXORUBICIN] | > 30 | > 30 | > 3 | > 30 | > 30 | 15.5 | > 30 | 
COc1cccc2c1C(=O)c1c(O)c3c(c(O)c1C2=O)C[C@@](O)(C(=O)CO)C[C@@H]3O[C@H]1C[C@H](N)[C@@H](O)[C@H](C)O1 [EPIRUBICIN] | 19.3 | > 30 | > 30 | > 30 | > 30 | 2.44 | 25.2 | 
CC1=C(/C=C/C(C)=C/C=C/C(C)=C\C(=O)O)C(C)(C)CCC1 [ISOTRETINOIN] | > 30 | > 30 | > 30 |  | > 30 |  | > 30 | > 30
CSCC[C@H](N)C(=O)O [METHIONINE] | > 30 | > 30 | > 30 | > 30 | > 30 | > 30 | > 30 | 
CC(=O)OCC(=O)[C@@]1(O)CC[C@H]2[C@@H]3C[C@H](C)C4=CC(=O)C=C[C@]4(C)[C@H]3[C@@H](O)C[C@@]21C [METHYLPREDNISOLONE ACETATE] | > 30 | > 30 | > 30 | > 30 | 3.03 | > 30 | > 30 | 
COc1ccc(C(=O)c2ccccc2)c(O)c1 [OXYBENZONE] | 18.1 | 11.6 | > 10 | > 30 | 25.7 | > 30 | > 30 | 
OC(CN1CCCCC1)c1cc(-c2ccccc2)on1 (stereo unspecified) [PERISOXAL] | > 30 | 21.9 | > 30 | > 30 | > 30 | > 30 | 16.9 | 
CNC(=O)c1cnn(-c2nc(N)c3ncn([C@@H]4O[C@H](CO)[C@@H](O)[C@H]4O)c3n2)c1 [REGADENOSON ANHYDROUS] | > 30 | > 30 | > 30 | > 30 | > 30 | > 30 | > 30 | 
CC1(C)CCC(C)(C)c2cc(NC(=O)c3ccc(C(=O)O)cc3)ccc21 [TAMIBAROTENE] | > 30 | > 30 | 9.94 |  | 29.2 | > 30 | > 30 | 
Cc1ccc(O)c([C@H](CCN(C(C)C)C(C)C)c2ccccc2)c1 [TOLTERODINE] |  | > 30 |  |  |  |  |  | 
CC(=O)O[C@]1(C(C)=O)CC[C@H]2[C@@H]3CCC4=CC(=O)CCC4=C3[C@@H](c3ccc(N(C)C)cc3)C[C@@]21C [ULIPRISTAL ACETATE] | > 30 | > 30 | > 30 | 9.29 | 0.003 | > 30 | > 30 | 
